Measurements reported in patent US6774143B1, “Method for treating cells resistant to antineoplastic agents” (Novartis AG, priority 2003, dated 2004).
Read-outs that look alike come from different tables or passages of the source.

Key:
[1] = test system: 1A9 cells; assay: Antiproliferative assay (MTS); format: cell-based; settings: Homo sapiens, 1A9, 72 h, single value given
Experimental: A549, a human non-small cell lung carcinoma and MDA-MB-435, a human breast carcinoma, used in this study are obtained from the American Type Culture Collection (ATCC, Rockville, Md., USA). MDA-MB-435 cells are maintained in MEM containing 10% FBS, 1% sodium pyruvate, 1% MEM non-essential amino acids, and 15 mM HEPES (pH=7.4). A549 cells are maintained in RPMI 1640 containing 10% FBS. 1A9, a single-cell clone of the human ovarian carcinoma cell line A2780 and PTX22, the paclitaxel-resistant subline, used in this stdy are obtained from M. Wartman (Novartis Pharmauticals). 1A9 cells and PTX22 cells are maintained in RPMI 1640 supplemented with 10% FBS. PTX22 maintenance media also contained 15 ng/mL paclitaxel and 5 μg/mL verapamil. Drug is removed from the media for 5-7 days before use in an experiment. […]
Cell lines are trypsinized and counted using a Coulter counter. […] Initial cell density for each cell line is measured on day 1 by adding 10 μL MTS mixture (see below), incubating for 4 h and recording absorbance at 490 nm (A490). Two or three days after test compound addition, 10 μL/well of MTS mixture is added to the test plates and A490 was read 4 h later. A490 values for wells containing cells are corrected for media absorbance, then normalized to initial density readings to determine percent net growth. Percent net growth is calculated as (A490+drug−A490 initial)/(A490—drug—A490 initial). […]

[2] = test system: HCT-15 colon cells; assay: Antiproliferative assay, methylene blue staining; format: cell-based; settings: Homo sapiens, read-out: IC50 antiproliferative activity
Excerpt: The following cell lines are obtained from the American Type Culture Collection (ATCC, Rockville, Md., USA): human colon carcinomas HCT-15 (CCL 225) and HCT-116 (CCL 247), human lung adenocarcinoma A549 (CCL 185), human large cell carcinoma NCI-H460 (HTB 177), estrogen-independent breast carcinoma MDA-MB-231 ([…]), prostate cancer cell line Du 145 (HTB 81). The human KB-31 (drug-sensitive) and KB-8511 (multidrug-resistant, Pgp170 overexpressing) epidermoid carcinoma cells are obtained from Dr. R. M. Baker, Roswell Park Memorial Institute (Buffalo, N.Y., USA) and have been previously described (Akiyam S, et al. Somatic Cell Molec Genetics 1985;11:117-126 and Fojo A, et al., Cancer Res. […];45:3002-3007). The human metastatic prostate carcinoma PC-3M is obtained from Dr. I. J. Fidler (MD Anderson Cancer Center, Houston, Tex., USA). The estrogen-dependent human breast carcinoma cell line MCF-7/ADR (multidrug resistant) is a subline of the MCF-7 cell line (ATCC HTB 22) and is obtained from Dr. D. Fabbro (Novartis Pharma AG, Basel, Switzerland) and has been previously described (Blobe G C, et al. J. Biol. Chem. 1993; 268:658-664).
For the antiproliferative assays, cells are seeded at 1.5×10^3/well into 96-well microtiter plates and incubated overnight. Compounds are added in serial dilutions on day 1. The plates are than incubated for additional 5 days. This allowed the control cultures to undergo at least 3 cell divisions. After incubation the cells are fixed with 3.3% v/v glutaraldehyde, washed with water and stained with 0.05% w/v methylene blue. After washing, the dye is eluted with 3% v/v HCl and the optical density measured at 665 nm with a SpectraMax 340 (Bucherer, Basel, Switzerland). IC50 values are determined by a computerized system (SoftPro, Bucherer, Basel, Switzerland) using the formula (OD test—OD start)/(OD control—OD start)×100. IC50 is defined as the drug concentration which leads to 50% of cells per well compared to control cultures (100%) at the end of the incubation period.

In the case of `C=C/C=C\[C@H](C)[C@H](OC(N)=O)[C@@H](C)[C@H](O)[C@@H](C)C/C(C)=C\[C@H](C)[C@@H](O)[C@@H](C)/C=C\[C@@H](O)C[C@@H]1OC(=O)[C@H](C)[C@@H](O)[C@H]1C` [discodermolide, (+)-Discodermolide], the IC50 ([1]; read-out: 72 hour IC50, 1A9 cells) is reported as 25 nM and the IC50 ([2]; HCT-15, 120 h) is reported as ~8 nM.
`CC(=O)O[C@H]1C(=O)[C@@]2(C)[C@H]([C@H](OC(=O)c3ccccc3)[C@]3(O)C[C@H](OC(=O)[C@H](O)[C@@H](NC(=O)c4ccccc4)c4ccccc4)C(C)=C1C3(C)C)[C@]1(OC(C)=O)CO[C@@H]1C[C@@H]2O` [paclitaxel, reference compound] showed an IC50 ([1]; 1A9 cells, read-out: 72 hour IC50) of 6 nM and an IC50 ([2]; 120 h, HCT-15 colon cells, 5 days incubation) of ~120 nM.
